This passage reports Dmax and DC50 results from patent US20230135894A1, “MK2 DEGRADERS AND USES THEREOF” (Kymera Therapeutics, Inc., priority 2021, published 2023).

Structures are written as SMILES. Bounds are passed on as bounds.

The target in test [1] is T1, MK2 (Homo sapiens, UniProt P49137). Description: MK2 degradation in human THP-1 monocytic cells (MSD, 24 h). The class given is cell-based. Set-up: endogenous in cells. The settings on record: for Dmax: THP-1, THP-1 cells; for DC50: THP-1 cells, read-out: MK2 MSD THP-1 degradation 24 h GMean External Abs DC50. The procedure:
MK2 Degradation in Human THP-1 Monoctyic Cells
(§1) The human monocytic cancer cell line THP-1 (ATCC (TIB-202)) was cultured in 96 well plates (Corning 3894) at a density of 200,000 cells per well in 100 microlitres in complete growth medium of RPMI 1640 (Gibco) pus 10% fetal Bovine Serum (Corning) and Penicillin/Streptomycin (SolarBio) at 37 degrees Celsius and 5% CO2. A serial dilution of each compound (usually 3 to 5 fold serial dilutions up to 10 separate concentration points) was added to individual wells from a 10 millimolar stock solution, at a background concentration of 0.1% DMSO and the cells were shaken at 600 rpm for 5 minutes and then were cultured for 24 hours at 37 degrees Celsius and 5% carbon dioxide. Separately, a custom MSD (MesoScaleDiscovery, L15XA-3) plate for detection of human MK2 was prepared by coating the plate with the commercial AbCam ab247272 reagent in 1×Phosphate Buffered Saline at 40 microlitres per well and incubated at 4 degrees Celsius overnight. The next day, the MSD plate was washed with 150 microlitres of Tween buffered saline, blocked with MSD blocking buffer (3% Blocker A from MSD), and washed again.
(§2) The cell plate was centrifuged at 3,200 g for 5 minutes and the supernatant was discarded and 100 microlitres of RIPA lysis buffer (containing proteinase inhibitors, Boston BioProducts BP-115D) was added and the plate was sealed and shaken on ice for 20 minutes. The plate was centrifuged as before and 70 microlitres of sample lysate was added to the MSD plates and they were shaken at room temperature for 1 hour at 600 rpm. The MSD plate was washed 3 times as before and then the primary MK2 detection antibody (Santa Cruz sc-100393) was added at a final concentration of 1 microgram per ml at 25 microlitres per well and shaken at room temperature for 1 hour at 600 rpm.
(§3) After 3 more washes, the secondary detection antibody (SULFO-Tag anti rabbit antibody R32AB-5) was added at a final concentration of 1 microgram per ml at 25 microlitres per well and shaken at room temperature for 1 hour at 600 rpm. After 3 more washes, the 1×MSD (diluted from 5× concentrate with water) reading buffer was added at 150 microlitres per well and read on the MSD instrument Meso Sector S 600.
(§4) The inhibition/degradation curves and DC50 values were plotted and calculated using XL Fit (version v5.3.1.3) using equation 201 and a 4 parameter logistic model whereby fit=(A+((B−A)/(1+((x/C)D))) where A is the Bottom and B is the Top and C is the IC50 and D is the slope and high C is the signal for the DMSO treated cells and Low C is the signal is the signal for the lysis buffer.

The target in test [2] is T1, MK2. Description: MK2 degradation in human SW1353 cells (MSD, 24 h). Set-up: endogenous in cells; host or cells: SW-1353 (ATCC HTB-94). To be noted: for Dmax: read-out: MK2 MSD SW 1353 24 h Dmax %; for DC50: read-out: MK2 MSD SW1353 degradation 24 h GMean External Abs DC50. Format: cell-based. The procedure:
MK2 Degradation in Human SW1353 Cells
as §1, with “chondrocyte” for “monocytic”, “SW-1353 (ATCC(HTB-94))” for “THP-1 (ATCC (TIB-202))”, “Leibovitz's L-15 Medium” for “RPMI 1640”, “Celsius.” for “Celsius and 5% CO2.”, “Celsius.” for “Celsius and 5% carbon dioxide.”
as §2, §3, §4

T1 sequence (P49137 whole entry): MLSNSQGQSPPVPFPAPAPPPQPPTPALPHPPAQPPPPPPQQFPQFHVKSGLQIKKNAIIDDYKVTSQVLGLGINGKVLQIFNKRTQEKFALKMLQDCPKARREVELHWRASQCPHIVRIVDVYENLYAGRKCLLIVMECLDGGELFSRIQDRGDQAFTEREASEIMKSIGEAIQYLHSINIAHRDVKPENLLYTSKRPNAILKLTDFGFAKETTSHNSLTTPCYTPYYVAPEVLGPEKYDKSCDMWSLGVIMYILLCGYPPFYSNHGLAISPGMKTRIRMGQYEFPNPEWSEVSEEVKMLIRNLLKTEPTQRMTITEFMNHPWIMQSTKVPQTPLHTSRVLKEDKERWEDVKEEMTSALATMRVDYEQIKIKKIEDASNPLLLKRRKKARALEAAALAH

With `C[C@@H]1CNc2c(sc3ccc4nc(-c5ccc(N6CCC(CN7CCC(c8cccc9c8n(C)c(=O)n9C8CCC(=O)NC8=O)CC7)CC6)cc5)ccc4c23)C(=O)N1` (some centres unmarked) [Compound I-98], at MK2 [1], the Dmax is greater than 75% and the DC50 was less than 1 nM. Further, at MK2 [2], the Dmax was greater than 75% and the DC50 is less than 1 nM.

As to `C[C@@H]1CNc2c(sc3ccc4nc(-c5ccc(N6CCC(CN7CCC(c8cccc9c8n(C)c(=O)n9C8CCC(=O)NC8=O)CC7)CC6)nc5)ccc4c23)C(=O)N1` (some centres unmarked) [Compound I-99], on MK2 [1], the maximal degradation (Dmax) was greater than 75% and the DC50 is less than 1 nM. For the same molecule, on MK2 [2], the Dmax was greater than 75% and the DC50 is less than 1 nM.

`C[C@@H]1CNc2c(sc3ccc4nc(-c5cncc(N6CCN(C(=O)COCCOCCc7cccc8c7n(C)c(=O)n8C7CCC(=O)NC7=O)CC6)c5)ccc4c23)C(=O)N1` (some centres unmarked) [Compound I-100]: at MK2 [1], the Dmax was greater than 75% and the DC50 is 1 to 10 nM. Besides, at MK2 [2], the Dmax is greater than 75% and the DC50 is 1 to 10 nM.

Regarding `C[C@@H]1CNc2c(sc3ccc4nc(-c5cncc(C6CCN(CCCCCCCCc7cccc8c7n(C)c(=O)n8C7CCC(=O)NC7=O)CC6)c5)ccc4c23)C(=O)N1` (some centres unmarked) [Compound I-103], at MK2 [1], the Dmax is greater than 75% and the DC50 was less than 1 nM. At MK2 [2], the Dmax was greater than 75% and the DC50 was in the range of 1 to 10 nM.

`C[C@@H]1CNc2c(sc3ccc4nc(-c5cccc(C6CCN(CCN7CCC(CCc8cccc9c8n(C)c(=O)n9C8CCC(=O)NC8=O)CC7)CC6)c5)ccc4c23)C(=O)N1` (some centres unmarked) [Compound I-104]: on MK2 [1], the Dmax is greater than 75% and the half-maximal degradation concentration (DC50) fell in the range of 1 to 10 nM. Moreover, on MK2 [2], the Dmax was greater than 75% and the DC50 fell in the range of 10 to 100 nM.

With `C[C@@H]1CNc2c(sc3ccc4nc(-c5cccc(N6CCN(CCN7CCC(CCc8cccc9c8n(C)c(=O)n9C8CCC(=O)NC8=O)CC7)CC6)c5)ccc4c23)C(=O)N1` (some centres unmarked) [Compound I-105], the Dmax on MK2 [1] and at MK2 [2] was greater than 75% in each case. For the same molecule, the DC50 is less than 1 nM on MK2 [1] and 1 to 10 nM on MK2 [2].

`C[C@@H]1CNc2c(sc3ccc4nc(-c5cccc(N6CCC(CN7CCC(CCc8cccc9c8n(C)c(=O)n9C8CCC(=O)NC8=O)CC7)CC6)c5)ccc4c23)C(=O)N1` (some centres unmarked) [Compound I-106]: on MK2 [1], the Dmax is greater than 75% and the DC50 is less than 1 nM. In addition, at MK2 [2], the greatest degradation seen (Dmax) was greater than 75% and the DC50 was in the range of 1 to 10 nM.

In the case of `C[C@@H]1CNc2c(sc3ccc4nc(-c5cccc(N6CCC(CN7CCN(CCc8cccc9c8n(C)c(=O)n9C8CCC(=O)NC8=O)CC7)CC6)c5)ccc4c23)C(=O)N1` (some centres unmarked) [Compound I-107], the Dmax at MK2 [1] and at MK2 [2] was greater than 75% throughout. For the same molecule, the DC50 was less than 1 nM at MK2 [1] and 1 to 10 nM on MK2 [2].

`C[C@@H]1CNc2c(sc3ccc4nc(-c5cccc(N6CCN(CCCc7ccc8c(c7)n(C)c(=O)n8C7CCC(=O)NC7=O)CC6)c5)ccc4c23)C(=O)N1` (some centres unmarked) [Compound I-118]: at MK2 [1], the Dmax was greater than 75% and the 50% degradation concentration (DC50) is less than 1 nM. Also, at MK2 [2], the Dmax is greater than 75% and the DC50 was less than 1 nM.

`C[C@@H]1CNc2c(sc3ccc4nc(-c5ccc(N6CCC(CN7CCC(c8ccc9c(c8)n(C)c(=O)n9C8CCC(=O)NC8=O)CC7)CC6)cc5)ccc4c23)C(=O)N1` (some centres unmarked) [Compound I-119]: on MK2 [1], the Dmax was greater than 75% and the DC50 was less than 1 nM. In addition, at MK2 [2], the Dmax was greater than 75% and the DC50 was less than 1 nM.

For the molecule `Cn1c(=O)n(C2CCC(=O)NC2=O)c2cccc(N3CCC(CN4CCN(c5ccc(-c6cc(-c7cc8c([nH]7)CCNC8=O)ccn6)cc5)CC4)CC3)c21` (centres unmarked) [Compound I-120], on MK2 [1], the Dmax is greater than 75% and the half-maximal degradation concentration (DC50) lay within 1 to 10 nM. Moreover, on MK2 [2], the greatest degradation seen (Dmax) was greater than 75% and the DC50 lay in the range of 1 to 10 nM.

On to `Cn1c(=O)n(C2CCC(=O)NC2=O)c2ccc(CCCN3CCN(c4cccc(-c5ccc(-c6cc7c([nH]6)CCNC7=O)cn5)c4)CC3)cc21` (centres unmarked) [Compound I-121], for which the Dmax at MK2 [1] and on MK2 [2] was less than 50% each time. Further, the half-maximal degradation concentration (DC50) at MK2 [1] and at MK2 [2] was greater than 100 nM throughout.

Consider `C[C@@H]1CNc2c(sc3ccc4nc(-c5ccc(C6CCN(CC7CCN(c8cccc9c8n(C)c(=O)n9C8CCC(=O)NC8=O)CC7)CC6)nc5)ccc4c23)C(=O)N1` (some centres unmarked) [Compound I-122], for which, on MK2 [1], the Dmax was greater than 75% and the DC50 was less than 1 nM. Moreover, on MK2 [2], the Dmax was greater than 75% and the DC50 is less than 1 nM.

Take `C[C@@H]1CNc2c(sc3ccc4nc(-c5ccc(N6CCN(CC7CCN(c8cccc9c8n(C)c(=O)n9C8CCC(=O)NC8=O)CC7)CC6)nc5)ccc4c23)C(=O)N1` (some centres unmarked) [Compound I-125]: on MK2 [1], the Dmax is greater than 75% and the DC50 was less than 1 nM. Moreover, on MK2 [2], the maximal degradation (Dmax) is greater than 75% and the DC50 is less than 1 nM.

For the molecule `C[C@@H]1CNc2c(sc3ccc4nc(-c5ccc(N6CCN(CC7CCN(c8cccc9c8n(C)c(=O)n9C8CCC(=O)NC8=O)CC7)CC6)cc5)ccc4c23)C(=O)N1` (some centres unmarked) [Compound I-126], the Dmax at MK2 [1] and on MK2 [2] was greater than 75% each time. Besides, the DC50 at MK2 [1] and on MK2 [2] was 1 to 10 nM in each case.

Take `C[C@@H]1CNc2c(sc3ccc4nc(-c5ccc(N6CCN(CCC7CCN(c8cccc9c8n(C)c(=O)n9C8CCC(=O)NC8=O)CC7)CC6)cc5)ccc4c23)C(=O)N1` (some centres unmarked) [Compound I-127]: at MK2 [1], the Dmax was greater than 75% and the 50% degradation concentration (DC50) fell in the range of 1 to 10 nM. In addition, on MK2 [2], the maximal degradation (Dmax) is greater than 75% and the DC50 was in the range of 1 to 10 nM.

On to `C[C@@H]1CNc2c(sc3ccc4nc(-c5ccc(N6CCC(CCN7CCN(c8cccc9c8n(C)c(=O)n9C8CCC(=O)NC8=O)CC7)CC6)cc5)ccc4c23)C(=O)N1` (some centres unmarked) [Compound I-128], for which, at MK2 [1], the Dmax is greater than 75% and the DC50 was 1 to 10 nM. At MK2 [2], the greatest degradation seen (Dmax) was greater than 75% and the DC50 was 1 to 10 nM.

Consider `C[C@@H]1CNc2c(sc3ccc4nc(-c5ccc(N6CCN(CC7CCN(c8ccc9c(c8)n(C)c(=O)n9C8CCC(=O)NC8=O)CC7)CC6)nc5)ccc4c23)C(=O)N1` (some centres unmarked) [Compound I-129], for which, at MK2 [1], the greatest degradation seen (Dmax) is greater than 75% and the DC50 was less than 1 nM. In addition, at MK2 [2], the Dmax is greater than 75% and the DC50 was less than 1 nM.

Regarding `C[C@@H]1CNc2c(sc3ccc4nc(-c5ccc(N6CCN(CC7CCN(c8ccc9c(c8)n(C)c(=O)n9C8CCC(=O)NC8=O)CC7)CC6)cc5)ccc4c23)C(=O)N1` (some centres unmarked) [Compound I-130], on MK2 [1], the greatest degradation seen (Dmax) is greater than 75% and the DC50 was less than 1 nM. Also, at MK2 [2], the Dmax is greater than 75% and the DC50 is less than 1 nM.

As for `C[C@@H]1CNc2c(sc3ccc4nc(-c5ccc(N6CCC(CCN7CCN(c8ccc9c(c8)n(C)c(=O)n9C8CCC(=O)NC8=O)CC7)CC6)cc5)ccc4c23)C(=O)N1` (some centres unmarked) [Compound I-131], the Dmax on MK2 [1] and on MK2 [2] was greater than 75% each time. The DC50 on MK2 [1] and on MK2 [2] was less than 1 nM each time.

What is called Dmax is the largest share of the target that was removed. For orientation: DC50 means the concentration at which degradation of the target reaches its halfway point.
